{"source": "PubChem BioAssay AID328", "about": "(DTP/NCI, 2004)", "tested_on": "BDF1 mice, P388 leukemia ip, median survival T/C", "test": "NCI In Vivo Anticancer Drug Screen. Data for tumor model P388 Leukemia (intraperitoneal) in B6D2F1 (BDF1) mice", "settings": "endpoint: median survival time, higher = longer survival", "how_it_was_run": "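Vehicle-dosed animals serve as the reference; survival of compound-dosed, tumour-implanted mice is divided by it.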", "note": "Toxic doses and inconclusive results are not listed."}
{"compound": "C[C@H]1[C@H](C)CC[C@]2(CO)CC[C@]3(C)C(=CC[C@@H]4[C@@]5(C)CC[C@@H](O)C(C)(C)[C@@H]5CC[C@]43C)[C@H]12", "values": [{"measurement": "T/C", "setting": "dose: 50.0 mg/kg/injection, schedule: Q01DX010 (ip), vehicle: acetone", "value": "120 % of control"}, {"measurement": "T/C", "setting": "dose: 400.0 mg/kg/injection, schedule: Q01DX010 (ip), vehicle: acetone", "value": "110 % of control"}]}
{"compound": "c1ccc2c(CNC3CCCCC3)c[nH]c2c1", "values": [{"measurement": "T/C", "setting": "dose: 100.0 mg/kg/injection, schedule: Q04DX003 (ip), vehicle: Klucel (hydroxypropylcellulose) (HPC)", "value": "95 % of control"}, {"measurement": "T/C", "setting": "dose: 200.0 mg/kg/injection, schedule: Q04DX003 (ip), vehicle: Klucel (hydroxypropylcellulose) (HPC)", "value": "90 % of control"}, {"measurement": "T/C", "setting": "dose: 400.0 mg/kg/injection, schedule: Q04DX003 (ip), vehicle: Klucel (hydroxypropylcellulose) (HPC)", "value": "90 % of control"}]}
{"compound": "CCN(C(C)C)C(C)C", "values": [{"measurement": "T/C", "setting": "dose: 25.0 mg/kg/injection, schedule: Q04DX003 (ip), vehicle: saline with Tween-80", "value": "100 % of control"}, {"measurement": "T/C", "setting": "dose: 50.0 mg/kg/injection, schedule: Q04DX003 (ip), vehicle: saline with Tween-80", "value": "100 % of control"}, {"measurement": "T/C", "setting": "dose: 100.0 mg/kg/injection, schedule: Q04DX003 (ip), vehicle: saline with Tween-80", "value": "100 % of control"}]}
